From US20230033285A1, “Protease Inhibitors for Treatment of Coronavirus Infections” (The Scripps Research Institute, priority 2021, published 2023) come the findings set out here.

The first test has as its system SARS-CoV-2. Put plainly: microbe, parasite or virus in culture. As to conditions: Severe acute respiratory syndrome coronavirus 2, HeLa-ACE2, 24 h, read-out: EC50, μM (Hela). The format is cell-based.
By EC50 is commonly meant the midpoint of the concentration-response curve. With `CC(C)C[C@H](NC(=O)C(=O)NC1CCCCC1)C(=O)N[C@@H](C[C@@H]1CCNC1=O)C(=O)CO` [Compound 14, N^1-cyclohexyl-N^2-((S)-1-(((S)-4-hydroxy-3-oxo-1-((S)-2-oxopyrrolidin-3-yl)butan-2-yl)amino)-4-methyl-1-oxopentan-2-yl)oxalamide], the EC50 is greater than 1 µM.

In the case of `CC(C)(C)[C@H](NC(=O)C(F)(F)F)C(=O)N1C[C@H]2[C@@H]([C@H]1C(=O)N[C@H](C=O)C[C@@H]1CCCNC1=O)C2(C)C` [Compound 132, (1R,2S,5S)-3-((S)-3,3-dimethyl-2-(2,2,2-trifluoroacetamido)butanoyl)-6,6-dimethyl-N-((S)-1-oxo-3-((S)-2-oxopiperidin-3-yl)propan-2-yl)-3-azabicyclo[3.1.0]hexane-2-carboxamide], the half-maximal effective concentration (EC50) is 0.5 to 1 µM.

Staying with this test, now noted: Severe acute respiratory syndrome coronavirus 2; HeLa-ACE2 cells infected with SARS-CoV-2, 24 h, immunofluorescence of infected cells; read-out: EC50, μM (Hela).
Take `CC1(C)[C@@H]2[C@@H](C(=O)N[C@H](C=O)C[C@@H]3CCCNC3=O)N(C(=O)C(=O)NC3CCCCC3)C[C@@H]21` [Compound 48, (1R,2S,5S)-3-(2-(cyclohexylamino)-2-oxoacetyl)-6,6-dimethyl-N-((S)-1-oxo-3-((S)-2-oxopiperidin-3-yl)propan-2-yl)-3-azabicyclo[3.1.0]hexane-2-carboxamide]: the EC50 fell in the range of 0.5 to 1 µM. Still for that read-out and setting: the value for `CC1(C[C@H](NC(=O)C(=O)NC23CC(F)(C2)C3)C(=O)N[C@@H](C[C@@H]2CCCNC2=O)C(=O)CO)CCC1` [Compound 111, N^1-(3-fluorobicyclo[1.1.1]pentan-1-yl)-N^2-((S)-1-(((S)-4-hydroxy-3-oxo-1-((S)-2-oxopiperidin-3-yl)butan-2-yl)amino)-3-(1-methylcyclobutyl)-1-oxopropan-2-yl)oxalamide] was 0.2 to 0.5 µM; that for `O=C(Nc1ccccc1F)C(=O)N1C[C@@H]2CCC[C@@H]2[C@H]1C(=O)N[C@@H](C[C@@H]1CCCNC1=O)C(=O)CO` [Compound 33, (1S,3aR,6aS)-2-(2-((2-fluorophenyl)amino)-2-oxoacetyl)-N-((S)-4-hydroxy-3-oxo-1-((S)-2-oxopiperidin-3-yl)butan-2-yl)octahydrocyclopenta[c]pyrrole-1-carboxamide] was 0.05 to 0.2 µM; that for `N#C[C@H](C[C@@H]1CCNC1=O)NC(=O)[C@@H]1[C@H]2CCC[C@H]2CN1C(=O)C(=O)Nc1ccccc1F` [Compound 62, (1S,3aR,6aS)-N-((S)-1-cyano-2-((S)-2-oxopyrrolidin-3-yl)ethyl)-2-(2-((2-fluorophenyl)amino)-2-oxoacetyl)octahydrocyclopenta[c] pyrrole-1-carboxamide] was greater than 1 µM. On the same count and under the same terms, the value for `Cc1ccc(C2(NC(=O)C(=O)N[C@@H](CC(C)C)C(=O)N[C@@H](C[C@@H]3CCNC3=O)C(=O)CO)CC2)cc1` [Compound 23] was 0.5 to 1 µM.

As to `COc1cccc2[nH]c(C(=O)N[C@@H](CC(C)C)C(=O)N[C@@H](C[C@@H]3CCNC3=O)C(=O)COC(=O)C3CCC(N4CCCCC4)CC3)cc12` (stereo partly drawn) [Compound 124, (S)-3-((S)-2-(4-methoxy-1H-indole-2-carboxamido)-4-methylpentanamido)-2-oxo-4-((S)-2-oxopyrrolidin-3-yl)butyl 4-(piperidin-1-yl)cyclohexane-1-carboxylate], the concentration giving a half-maximal response (EC50) was greater than 1 µM. Still for that read-out and setting: the value for `CC(C)(C)C[C@H](NC(=O)C(=O)Nc1ccccc1C(F)(F)F)C(=O)N[C@@H](CC1CCCNC1=O)C(=O)CO` (some centres unmarked) [Compound 96] was less than 0.05 µM; that for `CC(C)C[C@H](NC(=O)C(=O)Nc1ccccc1F)C(=O)N[C@@H](C[C@@H]1CCCNC1=O)C(=O)COC(=O)OC(C)C` [Compound 107, (S)-3-((S)-2-(2-((2-fluorophenyl)amino)-2-oxoacetamido)-4-methylpentanamido)-2-oxo-4-((S)-2-oxopiperidin-3-yl)butyl isopropyl carbonate] was less than 0.05 µM. Still for that read-out and setting: next, `O=C[C@H](C[C@@H]1CCNC1=O)NC(=O)[C@H](CC1CCCCC1)NC(=O)C(=O)Nc1ccccc1F` [Compound 40, N^1-((S)-3-cyclohexyl-1-oxo-1-(((S)-1-oxo-3-((S)-2-oxopyrrolidin-3-yl)propan-2-yl)amino)propan-2-yl)-N^2-(2-fluorophenyl)oxalamide]: 0.05 to 0.2 µM. On the same count and under the same terms, next, `CC(C)C[C@H](NC(=O)Nc1ccccc1F)C(=O)N[C@@H](C[C@@H]1CCNC1=O)C(=O)CO` [Compound 10, (S)-2-(3-(2-fluorophenyl)ureido)-N-((S)-4-hydroxy-3-oxo-1-((S)-2-oxopyrrolidin-3-yl)butan-2-yl)-4-methylpentanamide]: greater than 1 µM; `CC1(C)[C@@H]2[C@@H](C(=O)N[C@H](C#N)C[C@@H]3CCNC3=O)N(C(=O)C(=O)Nc3ccccc3F)C[C@@H]21` [Compound 59, (1R,2S,5S)-N-((S)-1-cyano-2-((S)-2-oxopyrrolidin-3-yl)ethyl)-3-(2-((2-fluorophenyl)amino)-2-oxoacetyl)-6,6-dimethyl-3-azabicyclo[3.1.0]hexane-2-carboxamide]: greater than 1 µM; `CCCCCCC(=O)OCC(=O)[C@H](C[C@@H]1CCNC1=O)NC(=O)[C@H](CC(C)C)NC(=O)c1cc2c(OC)cccc2[nH]1` [Compound 119, (S)-3-((S)-2-(4-methoxy-1H-indole-2-carboxamido)-4-methylpentanamido)-2-oxo-4-((S)-2-oxopyrrolidin-3-yl)butyl heptanoate]: 0.05 to 0.2 µM. For `CC(C)CC(=O)OCC(=O)[C@H](C[C@@H]1CCCNC1=O)NC(=O)[C@H](CC(C)C)NC(=O)C(=O)Nc1ccccc1F` [Compound 104, (S)-3-((S)-2-(2-((2-fluorophenyl)amino)-2-oxoacetamido)-4-methylpentanamido)-2-oxo-4-((S)-2-oxopiperidin-3-yl)butyl 3-methylbutanoate], the EC50 lay in the range of 0.05 to 0.2 µM. The same measure, in the same setting: next, `Cc1cccc(C)c1NC(=O)C(=O)N[C@@H](CC(C)C)C(=O)N[C@@H](C[C@@H]1CCNC1=O)C(=O)COC(=O)C(=O)c1ccccc1` [Compound 11, (S)-3-((S)-2-(2-((2,6-dimethylphenyl)amino)-2-oxoacetamido)-4-methylpentanamido)-2-oxo-4-((S)-2-oxopyrrolidin-3-yl)butyl 2-oxo-2-phenylacetate]: 0.05 to 0.2 µM; `CC(C)C[C@H](NC(=O)C(=O)Nc1ccccc1F)C(=O)N[C@@H](C[C@@H]1CCNC1=O)C(=O)COC(=O)OC(C)C` [Compound 108, (S)-3-((S)-2-(2-((2-fluorophenyl)amino)-2-oxoacetamido)-4-methylpentanamido)-2-oxo-4-((S)-2-oxopyrrolidin-3-yl)butyl isopropyl carbonate]: 0.05 to 0.2 µM; `O=C(Nc1ccccc1F)C(=O)N1C[C@@H]2CCC[C@@H]2[C@H]1C(=O)N[C@@H](C[C@@H]1CCNC1=O)C(=O)CO` [Compound 30, (1S,3aR,6aS)-2-(2-((2-fluorophenyl)amino)-2-oxoacetyl)-N-((S)-4-hydroxy-3-oxo-1-((S)-2-oxopyrrolidin-3-yl)butan-2-yl)octahydrocyclopenta[c]pyrrole-1-carboxamide]: 0.05 to 0.2 µM. Regarding `CC(C)(C)C[C@H](NC(=O)C(=O)Nc1cccc(OC(F)(F)F)c1)C(=O)N[C@@H](CC1CCCNC1=O)C(=O)CO` (some centres unmarked) [Compound 95], the EC50 was less than 0.05 µM. Still for that read-out and setting: the value for `COc1cccc2[nH]c(C(=O)N[C@@H](CC(C)C)C(=O)N[C@H](C=O)C[C@@H]3CCNC3=O)cc12` [Compound 35, 4-methoxy-N-((S)-4-methyl-1-oxo-1-(((S)-1-oxo-3-((S)-2-oxopyrrolidin-3-yl)propan-2-yl)amino)pentan-2-yl)-1H-indole-2-carboxamide] was greater than 1 µM; that for `CC(C)CCC(=O)N[C@@H](CC(C)(C)C)C(=O)N[C@H](C#N)C[C@@H]1CCCNC1=O` [Compound 136, (S)-N-((S)-1-cyano-2-((S)-2-oxopiperidin-3-yl)ethyl)-4,4-dimethyl-2-(4-methylpentanamido)pentanamide] was greater than 1 µM.

Regarding `CCc1cccc(CC)c1NC(=O)C(=O)N[C@@H](CC(C)C)C(=O)N[C@@H](C[C@@H]1CCNC1=O)C(=O)CO` [Compound 17, N^1-(2,6-diethylphenyl)-N^2-((S)-1-(((S)-4-hydroxy-3-oxo-1-((S)-2-oxopyrrolidin-3-yl)butan-2-yl)amino)-4-methyl-1-oxopentan-2-yl)oxalamide], the EC50 was less than 0.05 µM.

For `Cc1ccccc1NC(=O)C(=O)N[C@@H](CC(C)C)C(=O)N[C@@H](C[C@@H]1CCCNC1=O)C(=O)CO` [Compound 27, N^1-((S)-1-(((S)-4-hydroxy-3-oxo-1-((S)-2-oxopiperidin-3-yl)butan-2-yl)amino)-4-methyl-1-oxopentan-2-yl)-N^2-(o-tolyl)oxalamide], the half-maximal effective concentration (EC50) lay within 0.05 to 0.2 µM.
